Reference: US20100203159A1, “METAL COMPONENT […] IN PLANT” (COSMO OIL CO., LTD., priority 2007, published 2010)

Assays:
[1] = system: spinach; assay: Metal absorption-enhancing effect in spinach by daily spraying, metal content in dry weight by ICP; assay type: in vivo
Method: Two containers were provided and soil was placed in each of them, in which seeds of spinach were uniformly planted. From the day when the seeds were planted, water was applied once a day by means of a sprinkling can. To one of the container, tap water in which 5-aminolevulinic acid hydrochloride was dissolved in a concentration of 1 ppm was sprayed once a day in an amount of about 50 mL by means of a sprayer. Thinning was performed 3 weeks after the seed planting, and harvest was performed on the two containers after 38 days. At the harvest, the upper portions from the ground were cut out and the plant bodies were subjected to natural drying. After drying, the plant bodies was ground one by one in a mortar, the calcium content in dry weight was measured by ICP, and the concentration was calculated.
Similar operations were performed as in Example 1 and the manganese concentration in spinach was calculated.
Similar operations were performed as in Example 1 and the iron concentration in spinach was calculated.
Similar operations were performed as in Example 1 and the copper concentration in spinach was calculated.
Similar operations were performed as in Example 1 and the zinc concentration in spinach was calculated.

[2] = system: potato; assay: Metal absorption-enhancing effect in potato tubers by foliage treatment, metal analysis; assay type: in vivo; conditions: foliage treatment 1 ppm, from 30th day, then 8 times every other week, tubers harvested 105th day
Method: A seed tuber of potato was subjected to light-exposure and sprout-growth to stimulate germination. The germinated potato was planted in a pot of 1/20000×10 are in an amount of 1 tuber per pot. On 30th day after the planting (height of terrestrial portion: about 30 cm), 5-Aminolevulinic Acid hydrochloride was dissolved in a developing agent-diluted (2000 times) liquid in a concentration of 0 or 1 ppm and was applied to foliage treatment. Thereafter, the foliage treatment was performed 8 times every other week. The number of pots was 3 pots per test plot and new sprouts were removed while a strong thick sprout was left so that the number of sprout per pot was 1. On 105th day after the planting, potato as tubers was harvested and the tubers were selected from each test plot so that the total weight was 120±10 g. Then, they were pared and completely dried at 50° C. for two nights. Thereafter, they are pulverized and mixed in a mixer and then […] metal analysis was performed.
Similar operations were performed as in Example 14 and the magnesium concentration in potato was analyzed.

[3] = system: radish; assay: Metal absorption-enhancing effect in radish by foliage treatment, metal analysis; assay type: in vivo; conditions: foliage treatment 1 or 10 ppm, 100 L per 10 are, together with DTPA iron and magnesium sulfate, harvest 25th day
From the text: Radish was sowed in a pot of 1/57000×10 are in an amount of 6 seeds per pot and grown. An andosol (Kuroboku-soil) was used as soil and watering was suitably performed. On 11th day after the seeding (a two true leaves-developed stage), a solution containing 5-aminolevulinic acid hydrochloride prepared to a concentration of 0, 1, or 10 ppm in a developing agent-diluted (2000 times) liquid was applied to foliage treatment. Moreover, on this occasion, DTPA iron and magnesium sulfate were transformed into solutions having a concentration of 1.8 and 4.5 ppm in terms of Fe and MgO, respectively, and were applied to foliage treatment together with 5-aminolevulinic acid hydrochloride. The amount used for the treatment was 100 L per 10 are. The number of pots was 5 pots per test plot. On 15th day and 20th day after the seeding, thinning was performed and the number of plants per pot was adjusted to 4 individuals. On 25th day after the seeding, the plants were harvested and completely dried at 50° C. for two nights. Thereafter, they are pulverized and mixed in a mixer and then IPC metal analysis was performed.
Similar operations were performed as in Example and the zinc concentration in radish was analyzed.

[4] = system: barley; assay: Metal absorption-enhancing effect in barley hydroponics (water culture medium A), ICP metal analysis; assay type: in vivo, Barley (race: Fiber snow); conditions: 0.1, 0.3, 1, or 3 ppm in water culture medium A; FIG. 6
[5] = system: barley; assay: as above; assay type: in vivo, Barley (race: Fiber snow); conditions: for calcium content-enhancing effect in barley: FIG. 1; for zinc content-enhancing effect in barley: FIG. 5; for copper content-enhancing effect in barley: FIG. 4; for manganese content-enhancing effect in barley: FIG. 2; for iron content-enhancing effect in barley: FIG. 3
Method: Barley (race: Fiber snow) was seeded on river sand, sprouted, and grown for 9 days. After the growth, the sand was washed out with caring so as not to hurt roots and the roots were cut so as to adjust the length to 2 cm. The roots were immersed in a water culture medium A and hydroponics was performed.
As water culture media, one in which no 5-aminolevulinic acid was dissolved and those in which the compound was dissolved so that each one has a concentration of 0.1, 0.3, or 1 ppm were prepared. The water culture medium was replaced 13 days after the start of the hydroponics, and hydroponics was continued for another 6 days. After the hydroponics, the plant was dried at 50° C. for two nights and then was subjected to ICP metal analysis.
Similar operations were performed as in Example 6 except that the concentration of the added 5-aminolevulinic acid was adjusted to 0, 0.3, or 1 ppm and the manganese concentration in barley was analyzed.
Similar operations were performed as in Example 6 except that the composition of the water culture medium was changed to twofold concentration of the water culture medium A and the concentration of the added 5-aminolevulinic acid was adjusted to 0, 1, or 3 ppm, and then the iron concentration in barley was analyzed.
Similar operations were performed as in Example 6 except that the water culture medium A and a water culture medium having a composition which was twice the composition of the water culture medium A were used and the concentration of the added 5-aminolevulinic acid was adjusted to 0, 0.1, or 0.3 ppm, and then the copper concentration in barley was analyzed. The results are shown in FIG. 4 (left one in the figure is for the water culture medium A and right one is for twofold concentration of the water culture medium A).
Similar operations were performed as in Example 6 except that the concentration of the added 5-aminolevulinic acid was adjusted to 0, 0.1, or 0.3 ppm, and the zinc concentration in barley was analyzed.
Similar operations were performed as in Example 6 except that the concentration of the added 5-aminolevulinic acid was adjusted to 0, 0.1, 0.3, 1, or 3 ppm, and the manganese concentration in barley was analyzed.
Similar operations were performed as in Example 6 except that the concentration of the added 5-aminolevulinic acid was adjusted to 0 or 30 ppm, and the calcium concentration in barley was analyzed.
Similar operations were performed as in Example 6 except that the concentration of the added 5-aminolevulinic acid was adjusted to 0 or 30 ppm, and the manganese concentration in barley was analyzed.
Similar operations were performed as in Example 6 except that the concentration of the added 5-aminolevulinic acid was adjusted to 0 or 30 ppm and the iron concentration in barley was analyzed.
Similar operations were performed as in Example 6 except that the concentration of the added 5-aminolevulinic acid was adjusted to 0 or 30 ppm, and the copper concentration in barley was analyzed.
Similar operations were performed as in Example 6 except that the concentration of the added 5-aminolevulinic acid was adjusted to 0 or 30 ppm, and the zinc concentration in barley was analyzed.
Similar operations were performed as in Example 6 except that the concentration of the added 5-aminolevulinic acid was adjusted to 0 or 30 ppm and the magnesium concentration in barley was analyzed.

## Cl.NCC(=O)CCC(=O)O [5-aminolevulinic acid hydrochloride]
[1]; 1 ppm in tap water sprayed once a day, about 50 mL, harvest after 38 days, dry weight, n = 18, no-ALA control 0.61
  Average value of calcium concentration in spinach: 0.68%
[1]; 1 ppm sprayed once a day, harvest after 38 days, dry weight, n = 18, no-ALA control 0.015
  Average value of iron concentration in spinach: 0.049%
[1]; 1 ppm sprayed once a day, harvest after 38 days, dry weight, n = 18, no-ALA control 0.023
  Average value of copper concentration in spinach: 0.029%
[1]; 1 ppm sprayed once a day, harvest after 38 days, dry weight, n = 18, no-ALA control 0.027
  Average value of manganese concentration in spinach: 0.031%
[1]; 1 ppm sprayed once a day, harvest after 38 days, dry weight, n = 18, no-ALA control 0.033
  Average value of zinc concentration in spinach: 0.048%
[1]; spraying, 1 ppm once a day
  calcium content-enhancing effect in spinach: calcium content-enhancing effect was observed
  copper content-enhancing effect in spinach: copper content-enhancing effect was observed
  iron content-enhancing effect in spinach: iron content-enhancing effect was observed
  manganese content-enhancing effect in spinach: manganese content-enhancing effect was observed
  zinc content-enhancing effect in spinach: zinc content-enhancing effect was observed
[2]; FIG. 9
  iron content-enhancing effect in potato: iron content-enhancing effect was observed
[2]; FIG. 10
  magnesium content-enhancing effect in potato: magnesium content-enhancing effect was observed
[3]; FIG. 7
  manganese content-enhancing effect in radish: manganese content-enhancing effect was observed
[3]; FIG. 8
  zinc content-enhancing effect in radish: zinc content-enhancing effect was observed
[4]
  magnesium content-enhancing effect in barley: magnesium content-enhancing effect was observed
[5]; 0.1, 0.3, or 1 ppm in water culture medium A
  calcium content-enhancing effect in barley: calcium content-enhancing effect was observed
[5]; 0.1 or 0.3 ppm in water culture medium A
  zinc content-enhancing effect in barley: zinc content-enhancing effect was observed
[5]; 0.1 or 0.3 ppm, water culture medium A and twofold concentration of medium A
  copper content-enhancing effect in barley: copper content-enhancing effect was observed
[5]; 0.3 or 1 ppm in water culture medium A
  manganese content-enhancing effect in barley: manganese content-enhancing effect was observed
[5]; 1 or 3 ppm, twofold concentration of water culture medium A
  iron content-enhancing effect in barley: iron content-enhancing effect was observed
[5]; 30 ppm in water culture medium, Comparative Example 1
  calcium content-enhancing effect in barley: calcium content-enhancing effect was not observed
[5]; 30 ppm in water culture medium, Comparative Example 2
  manganese content-enhancing effect in barley: manganese content-enhancing effect was not observed
[5]; 30 ppm in water culture medium, Comparative Example 3
  iron content-enhancing effect in barley: iron content-enhancing effect was not observed
[5]; 30 ppm in water culture medium, Comparative Example 4
  copper content-enhancing effect in barley: copper content-enhancing effect was not observed
[5]; 30 ppm in water culture medium, Comparative Example 5
  zinc content-enhancing effect in barley: zinc content-enhancing effect was not observed
[5]; 30 ppm in water culture medium, Comparative Example 6, FIG. 6
  magnesium content-enhancing effect in barley: magnesium content-enhancing effect was not observed
